# Reference: patent US20260027073A1, “USE OF SMALL-MOLECULE COMPOUND HAVING NAPHTHYLAMINE STRUCTURE” (HANGZHOU PHECDAMED CO., LTD., priority 2023, published 2026)
# Where “and” joins values, the source holds several entries; their conditions need not be identical. Identical values can stand only once.
# How the values were obtained:
# [1] = system: mice with renal ischemia-reperfusion; experiment: Unilateral renal ischemia-reperfusion acute kidney injury; format: in vivo, C57BL/6 mice
# Method: 8-week-old C57BL/6 mice (weighing about 20-25 g) were injected intraperitoneally with 50 mg/kg sodium pentobarbital. After the mice were anesthetized, carried out preserved skin and placed on a thermostatic table, the skin and muscle of the right side were incised from the back and the right kidney was exposed, and the tissue around the pedicle of the kidney was stripped off with forceps to expose the blood vessels and the ureter. The arterial and venous blood vessels and the ureter were ligated with sutures. After removing the kidney, the muscle and skin were sutured with sutures and placed at 37° C. to wake it up, and after waking up, the mice were given […] of I-1. The experiments were divided into a sham group (exposing the right side of the kidney without removing it), a control group (giving solvent treatment by oral gavage), a 10 mg/kg group (10 mg/kg I-1 by oral gavage) and a 30 mg/kg group (30 mg/kg I-1 by oral gavage), with being administered once a day, and left kidney ischemia-reperfusion was performed on the sixth day, the specific plan was: mice were injected intraperitoneally with 50 mg/kg sodium pentobarbital, after anesthetizing, carried out preserved skin and placed on a thermostatic table, the skin and muscle of the left side were cut from the back and the left kidney was exposed, and the tissue around the pedicle of the kidney was stripped off with forceps to expose the blood vessels, and the arterial clip were used to tighten the blood vessel, after ischemia for 45 min, the arterial clip were released and the kidney tissue was returned to its place with a cotton swab, and finally the muscle and skin were sutured with a suture lines and the mice were placed at 37° C. to wake it up, and given another drug treatment after waking up. Blood was taken from the eyeball after 24 h of reperfusion, and the blood was centrifuged at 12000 g for 10 min at 4° C. after standing at room temperature for 45 min, and the supernatant (serum) was taken to detect the level of creatinine and urea nitrogen in the serum with a biochemical analyzer.
# After blood extraction from the mouse eyeballs, cardiac perfusion was performed with PBS, after mice were anesthetized and fixed on a foam plate with a needle, the skin and ribs of the chest and abdomen were cut open to expose the heart, the injection needle was inserted into the left ventricle of mice and the pericardium was cut open at the same time, and the perfusion was performed with PBS at a speed of 7 rpm until the liver turned white and then the perfusion was stopped, the kidneys were taken out, and the renal peritoneum was removed, and the kidneys were put into 4% paraformaldehyde and fixed and immersed for 72 h. Subsequently, tissue embedding was carried out. Then tissue embedding, sectioning and HE staining were performed as follows:
# Tissue was dewaxed after embedding and sectioning, and performed antigen repair, 5% goat serum sealing solution was added dropwise at 37° C. for 40 min, 50 μl of KIM-1 and caspase3 primary antibody (1:500) was added dropwise, overnight at 4° C.; after rewarming at 37° C. for 30 min, the tissue was washed by PBS four times, each time for 5 min. And then fluorescence secondary antibody was added dropwise for Ih, and the tissue was washed by PBS four times, each time for 5 min, finally, the tissue was stained by DAPI for 10 min, sealed with nail polish, and images were collected by cytation 3.
# [2] = system: autoimmune myocarditis model rats; experiment: Autoimmune myocarditis model; format: in vivo, Lewis rats; settings: for left ventricular end-diastolic transverse diameter LVIDd / left ventricular end-systolic transverse diameter LVIDs / ejection fraction EF / short-axis fractional shortening FS / serum CK-MB level: 30 mg/kg oral gavage, 4 weeks; for left ventricular end-diastolic transverse diameter LVIDd / left ventricular end-systolic transverse diameter LVIDs: FIG. 79; for ejection fraction EF / short-axis fractional shortening FS: FIG. 80; for serum CK-MB level: FIG. 81
# Method: 8-week-old male SPF-grade Lewis rats were adaptively fed for one week to construct an autoimmune myocarditis model. The rats were divided into two groups, normal control group (normal rats, routine feeding) and model group, in which porcine cardiac myosin used to induce autoimmunity and Freund's adjuvant were fully mixed in 1:1 in the model group (purified porcine cardiac myosin was dissolved in PBS solution, with its concentration being controlled to 10 g/L, under sterile conditions the solution was mixed with the complete Freund's adjuvant CFA in 1:1 equal volume and emulsified completely, so that it became a homogeneous emulsion), a total of 0.2 ml of the immunization mixture was injected subcutaneously into multiple points such as the bilateral groin and axilla of the rats. Normal control rats were immunized with myosin-free PBS and CFA emulsion. From the 14th day after immunization, the model groups were administrated in groups, and were divided into three groups: model group (model, treated with 0.5% CMC-Na by oral gavage, n=8) TJ01-013 treatment group (TJ01-013, 30 mg/kg TJ01-013 by oral gavage, n=8), I-14-1 treatment group (I-14-1, 30 mg/kg I-14-1 by oral gavage, n=8). A normal control group (Control, treated with 0.5% CMC-Na by oral gavage, n=8) was further provided, and the administration of the drug was started immediately after grouping, and the drug was administered for a total of 4 weeks. At the end of the administration, rats were weighed, anesthetized and blood was taken, and serum was extracted and the corresponding physiological indexes were detected. After euthanasia, the rats' hearts were stripped and weighed, and the organ coefficients of the hearts were calculated.
# After the end of administration, rats were weighed, anesthetized with 10% chloral hydrate via intraperitoneal injection, and then subjected to echocardiography in the supine and slightly left lateral position after chest hair removal, and the average value was taken from 3 repetitions. The detection indexes include left ventricular end-diastolic transverse diameter LVIDd, left ventricular end-systolic transverse diameter LVIDs, short-axis fractional shortening FS, and ejection fraction EF.
# [3] = system: rats of type I diabetes nephropathy model; experiment: Kidney injury induced by type 1 diabetic nephropathy (STZ); format: in vivo, SD rats
# Method: 150-170 g SD male rats were fasted but not deprived of water for 12 h before surgery, and a longitudinal incision was made at the intersection of the lower edge of the right rib arch, which was about 1 cm long. Then the three layers of skin, mucous membrane, and muscle were separated layer by layer to expose the perinephric fat, and the perinephric fat was clamped by hemostatic forceps and lifted upward to expose the right kidney, and the right kidney pedicle was ligated and the right kidney was resected, and after no hemorrhage was checked, the tissues were sutured layer by layer. One week after surgery, 1% streptozotocin (STZ) 50 mg/kg was injected intraperitoneally in a volume of […]. Rats in the sham group only had the abdominal cavity opened, the right renal adipose capsule was peeled off, and the right kidney was not resected; the abdominal cavity was closed, the incision was sutured and an equal volume of citrate solution was injected into the tail vein one week later.
# Random blood glucose was measured 72 h after STZ injection, and blood glucose ≥16.65 mmol/L was considered as successful diabetes modeling. The successful modeling rats were selected to continue to be fed with normal chow and free water. […] The experiment was divided into sham group (sham group, without STZ modeling and given vehicle by oral gavage), Control group (model control group, STZ modeling and given vehicle treatment by oral gavage), and 15 mg/kg I-1 group (STZ modeling and given 15 mg/kg I-1 by oral gavage), and the dosage of the drug was administered once a day in the volume of 10 ml/kg for 27 days. […] At the end point of the experiment, the rats were euthanized, the kidneys were removed after dissection, and four kidneys were taken to be fixed with 4% paraformaldehyde for 48 h, paraffin-embedded, sectioned and HE stained, and the specific staining procedure was as described above.
# [4] = reperfusion 24 h, oral gavage 10 mg/kg and 30 mg/kg, FIG. 1
structure (smiles),measurement,setting,value
O=C(O)C[S+]([O-])c1cc(NS(=O)(=O)c2ccc(Br)cc2)c2ccccc2c1O (stereo not shown) [I-1],damage to renal tissues (HE staining),[1]; FIG. 2,alleviated the damage to renal tissues
same,KIM-1 level in renal tissue (immunostaining),[1]; FIG. 3,inhibited
same,cleaved-caspase3 level in renal tissue (immunostaining),[1]; FIG. 3,inhibited
same,serum creatinine level,[1]; [4],significantly reduced
same,serum urea nitrogen level,[1]; [4],significantly reduced
same,left ventricular end-diastolic transverse diameter LVIDd,[2],reduce
same,left ventricular end-systolic transverse diameter LVIDs,[2],reduce
same,ejection fraction EF,[2],increase
same,short-axis fractional shortening FS,[2],increase
same,serum CK-MB level,[2],decrease
same,treatment of TJ01-013 compared with I-14-1,"[2]; LVIDd/LVIDs, EF/FS, CK-MB",significantly better
same,body weight,"[3]; 15 mg/kg oral gavage, 27 days, FIG. 14",trend of increasing body weight
same,blood glucose level,"[3]; 15 mg/kg, 27 days, FIG. 16",no significant effect
same,24-h urine protein level,"[3]; 15 mg/kg, 27 days, FIG. 17","decrease in the 24-h urine protein level of rats, but there was no significant difference"
same,serum creatinine level,"[3]; 15 mg/kg, 27 days, P<0.5 [sic], FIG. 15",significantly decreased
same,degree of renal pathology (HE staining),"[3]; 15 mg/kg, 27 days, vs model group, FIG. 18",significant reduction
same,"Renal lesion (number of kidneys, n = 4)","[3]; Degree of lesion + (mild lesions), 15 mg/kg",3/4 and 3
same,"Renal lesion (number of kidneys, n = 4)","[3]; Degree of lesion ++ (moderate lesions), 15 mg/kg",0
same,"Renal lesion (number of kidneys, n = 4)","[3]; Degree of lesion +++ (severe lesions), 15 mg/kg",1/4 and 1
same,"Renal lesion (number of kidneys, n = 4)","[3]; Degree of lesion ± (slight lesions), 15 mg/kg",0
same,"Renal lesion (number of kidneys, n = 4)","[3]; Degree of lesion − (no lesions), 15 mg/kg",0
O=C(O)C[S+]([O-])c1cc(NS(=O)(=O)c2ccc(C(F)(F)F)cc2)c2ccccc2c1O (stereo not shown) [I-14-1],left ventricular end-diastolic transverse diameter LVIDd,[2],reduce
same,left ventricular end-systolic transverse diameter LVIDs,[2],reduce
same,ejection fraction EF,[2],increase
same,short-axis fractional shortening FS,[2],increase
same,serum CK-MB level,[2],decrease
"O=C(O)CSc1cc(NS(=O)(=O)c2ccc(Br)cc2)c2ccccc2c1O [UMI-77, reference compound]",treatment of renal ischemia-reperfusion injury compared with I-1,[1]; UMI-77 group vs I-1,less effective
same,protection against kidney injury in type 1 diabetes compared with I-1 group,[3]; UMI-77 vs I-1,less protective
